In patent US8575186B2, “Epiminocycloalkyl[b] indole derivatives as serotonin sub-type 6 (5-HT6) modulators and uses thereof” (Albany Molecular Research, Inc., priority 2009, dated 2013):
Structures can show the parent of a compound that is named as a salt. Where two headings read alike, the source gives them in different places.

Biological target: human 5-HT6 receptor (Homo sapiens (Human), UniProt P50406)
Assay: radioligand binding assay (SPA format), [N-methyl-3H]-LSD
Conditions: read-out: human 5HT6 Ki, human 5-HT6 receptor membranes, 10 nM [3H]-LSD

Chain of human 5-HT6 receptor (P50406 whole entry): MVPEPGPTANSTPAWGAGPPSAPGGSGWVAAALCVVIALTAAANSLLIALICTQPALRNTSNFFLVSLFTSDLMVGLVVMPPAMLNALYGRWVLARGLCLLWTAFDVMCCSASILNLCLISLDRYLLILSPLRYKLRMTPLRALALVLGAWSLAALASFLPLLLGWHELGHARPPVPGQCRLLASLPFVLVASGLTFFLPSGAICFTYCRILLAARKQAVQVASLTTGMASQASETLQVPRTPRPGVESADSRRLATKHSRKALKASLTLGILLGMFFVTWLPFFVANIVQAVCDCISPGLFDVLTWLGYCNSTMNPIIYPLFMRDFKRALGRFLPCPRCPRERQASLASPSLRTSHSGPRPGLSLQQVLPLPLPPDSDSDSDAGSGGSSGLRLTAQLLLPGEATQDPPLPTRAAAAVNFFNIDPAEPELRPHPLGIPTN

Cn1c2c(c3cc(S(=O)(=O)c4ccc(CN)cc4)ccc31)C1CCC(C2)N1 (stereo not shown) [Example 33, 2-(4-Aminomethylphenyl)sulfonyl-5-methyl-5,6,7,8,9,10-hexahydro-7,10-epiminocyclohepta[b]indole dihydrochloride]
Ki: 15 nM

CN(C)Cc1ccc(S(=O)(=O)c2ccc3c(c2)c2c(n3C)CC3CCC2N3)cc1 (stereo not shown) [Example 34, 2-[4-(N,N-Dimethylaminomethyl)phenyl]sulfonyl-5-methyl-5,6,7,8,9,10-hexahydro-7,10-epiminocyclohepta[b]indole dihydrochloride]
Ki: 4.8 nM

Cn1c2c(c3cc(S(=O)(=O)c4cccc(Cl)c4)ccc31)C1CCC(C2)N1 (stereo not shown) [Example 36, 2-(3-Chlorophenyl)sulfonyl-5-methyl-5,6,7,8,9,10-hexahydro-7,10-epiminocyclohepta[b]indole hydrochloride]
Ki (hydrochloride): 1.8 nM

Cn1c2c(c3cc(S(=O)(=O)n4ccc5c(F)cccc54)ccc31)C1CCC(C2)N1 (stereo not shown) [Example 64, 2-[1-(4-Fluoro)-indole]sulfonyl-5-methyl-5,6,7,8,9,10-hexahydro-7,10-epiminocyclohepta[b]indole hydrochloride]
Ki: 5.6 nM

CN1C2CCC1c1c(n(C)c3ccc(S(=O)(=O)c4ccccc4)cc13)C2 (stereo not shown) [Example 69, 2-Phenylsulfonyl-5-methyl-5,6,7,8,9,10-hexahydro-7,10-N-methyl-epiminocyclohepta[b]indole hydrochloride]
Ki: 7.8 nM

CCc1cc(S(=O)(=O)c2ccccc2)cc2c3c(n(C)c12)CC1CCC3N1 (stereo not shown) [Example 80, 2-Phenylsulfonyl-4-ethyl-5-methyl-5,6,7,8,9,10-hexahydro-7,10-epiminocyclohepta[b]indole hydrochloride]
Ki: 17 nM

Cn1c2c(c3cc(S(=O)(=O)c4ccccc4)ccc31)C1CCCC(C2)N1 (stereo not shown) [Example 92, 2-(Phenylsulfonyl)-5-methyl-6,7,8,9,10,11-hexahydro-5H-7,11-epiminocycloocta[b]indole hydrochloride]
Ki: 150 nM

Cn1c2c(c3cc(S(=O)(=O)c4ccc5cc[nH]c5c4)ccc31)C1CCC(C2)N1 (stereo not shown) [Example 95]
Ki: 5.8 nM

Cn1c2c(c3cc(S(=O)(=O)c4cc(F)ccn4)ccc31)C1CCC(C2)N1 (stereo not shown) [Example 96]
Ki: 341 nM

Cn1c2c(c3cc(S(=O)(=O)c4cc(Cl)ccn4)ccc31)C1CCC(C2)N1 (stereo not shown) [Example 97]
Ki: 104 nM

Cn1c2c(c3cc(S(=O)(=O)c4cccc5cc[nH]c45)ccc31)C1CCC(C2)N1 (stereo not shown) [Example 99]
Ki: 4.5 nM

Cn1c2c(c3cc(S(=O)(=O)c4cnc5[nH]ccc5c4)ccc31)C1CCC(C2)N1 (stereo not shown) [Example 101]
Ki: 2.9 nM

Cn1c2c(c3cc(S(=O)(=O)c4cn(Cc5ccccc5)c5ccccc45)ccc31)C1CCC(C2)N1 (stereo not shown) [Example 102]
Ki: 0.71 nM

Cn1c2c(c3cc(S(=O)(=O)c4cn(-c5ccccc5)c5ccccc45)ccc31)C1CCC(C2)N1 (stereo not shown) [Example 103]
Ki: 9.3 nM

Cn1c2c(c3cc(S(=O)(=O)c4ccc5sccc5c4)ccc31)C1CCC(C2)N1 (stereo not shown) [Example 104]
Ki: 5 nM

Cn1c2c(c3cc(S(=O)(=O)c4ccccc4O)ccc31)C1CCC(C2)N1 (stereo not shown) [Example 105]
Ki: 100 nM

Cn1c2c(c3cc(S(=O)(=O)n4ccc5ncccc54)ccc31)C1CCC(C2)N1 (stereo not shown) [Example 107]
Ki: 78 nM

Cn1c2c(c3cc(S(=O)(=O)c4cccc5ncccc45)ccc31)C1CCC(C2)N1 (stereo not shown) [Example 110]
Ki: 148 nM

Cn1c2c(c3cc(S(=O)(=O)c4cccc5cnccc45)ccc31)C1CCC(C2)N1 (stereo not shown) [Example 111]
Ki: 22 nM

Cn1c2c(c3cc(S(=O)(=O)c4ccccc4F)ccc31)C1CCC(C2)N1 (stereo not shown) [Example 112]
Ki: 4.6 nM

Cn1c2c(c3cc(S(=O)(=O)c4cccc5cccnc45)ccc31)C1CCC(C2)N1 (stereo not shown) [Example 113]
Ki: 23 nM

Cn1c2c(c3cc(S(=O)(=O)c4ccccc4Cl)ccc31)C1CCC(C2)N1 (stereo not shown) [Example 115]
Ki: 4.8 nM

Cn1c2c(c3cc(S(=O)(=O)c4ccc5occc5c4)ccc31)C1CCC(C2)N1 (stereo not shown) [Example 116]
Ki: 20 nM

CC(C)n1ccc2cc(S(=O)(=O)c3ccc4c(c3)c3c(n4C)CC4CCC3N4)ccc21 (stereo not shown) [Example 117]
Ki: 4.4 nM

Cn1c2c(c3cc(S(=O)(=O)c4ccc5c(ccn5CCO)c4)ccc31)C1CCC(C2)N1 (stereo not shown) [Example 119]
Ki: 228 nM

COCCn1ccc2cc(S(=O)(=O)c3ccc4c(c3)c3c(n4C)CC4CCC3N4)ccc21 (stereo not shown) [Example 120]
Ki: 64 nM

Cn1c2c(c3cc(S(=O)(=O)c4cccc(OCc5ccccc5)c4)ccc31)C1CCC(C2)N1 (stereo not shown) [Example 121]
Ki: 1.9 nM

Cn1c2c(c3cc(S(=O)(=O)c4cc(C(F)(F)F)c5[nH]ccc5c4)ccc31)C1CCC(C2)N1 (stereo not shown) [Example 123]
Ki: 0.47 nM

Cn1c2c(c3cc(S(=O)(=O)c4cc(F)c5[nH]ccc5c4)ccc31)C1CCC(C2)N1 (stereo not shown) [Example 124]
Ki: 0.33 nM

Cn1c2c(c3cc(S(=O)(=O)c4cccc(-c5cc[nH]n5)c4)ccc31)C1CCC(C2)N1 (stereo not shown) [Example 125]
Ki: 244 nM

Cc1cc2ccccc2n1S(=O)(=O)c1ccc2c(c1)c1c(n2C)CC2CCC1N2 (stereo not shown) [Example 126]
Ki: 7.2 nM

Cn1c2c(c3cc(S(=O)(=O)n4ccc5ccc(C#N)cc54)ccc31)C1CCC(C2)N1 (stereo not shown) [Example 127]
Ki: 1.5 nM

Cn1c2c(c3cc(S(=O)(=O)n4cc(F)c5ccccc54)ccc31)C1CCC(C2)N1 (stereo not shown) [Example 129]
Ki: 2.7 nM

Cn1c2c(c3cc(S(=O)(=O)c4cccc5ccncc45)ccc31)C1CCC(C2)N1 (stereo not shown) [Example 131]
Ki: 13 nM

Cn1c2c(c3cc(S(=O)(=O)c4ccnc5ccccc45)ccc31)C1CCC(C2)N1 (stereo not shown) [Example 132]
Ki: 39 nM

Cn1c2c(c3cc(S(=O)(=O)c4cccc(OCc5ccncc5)c4)ccc31)C1CCC(C2)N1 (stereo not shown) [Example 133]
Ki: 11 nM

CN1C2CCC1c1c(n(C)c3ccc(S(=O)(=O)c4ccc5[nH]ccc5c4)cc13)C2 (stereo not shown) [Example 134]
Ki: 0.26 nM

CC(C)N1C2CCC1c1c(n(C)c3ccc(S(=O)(=O)c4ccc5[nH]ccc5c4)cc13)C2 (stereo not shown) [Example 135]
Ki: 3.2 nM

COCCN1C2CCC1c1c(n(C)c3ccc(S(=O)(=O)c4ccc5[nH]ccc5c4)cc13)C2 (stereo not shown) [Example 136]
Ki: 1.4 nM

Cn1c2c(c3cc(S(=O)(=O)c4ccc5[nH]ccc5c4)ccc31)C1CCC(C2)N1Cc1ccccc1 (stereo not shown) [Example 137]
Ki: 1.2 nM

Cn1c2c(c3cc(S(=O)(=O)c4ccc5[nH]ccc5c4)ccc31)C1CCC(C2)N1CCO (stereo not shown) [Example 138]
Ki: 1.2 nM

Cn1c2c(c3cc(S(=O)(=O)c4csc5ccccc45)cc(F)c31)C1CCC(C2)N1 (stereo not shown) [Example 139]
Ki: 0.47 nM

Cc1cc(S(=O)(=O)c2cn(C)c3ccccc23)cc2c3c(n(C)c12)CC1CCC3N1 (stereo not shown) [Example 140]
Ki: 0.56 nM

Cc1cc(S(=O)(=O)c2csc3ccccc23)cc2c3c(n(C)c12)CC1CCC3N1 (stereo not shown) [Example 141]
Ki: 0.29 nM

Cn1c2c(c3cc(S(=O)(=O)c4ccccc4)cc(C#N)c31)C1CCC(C2)N1 (stereo not shown) [Example 142]
Ki: 115 nM

COc1cc(S(=O)(=O)c2ccc3[nH]ccc3c2)cc2c3c(n(C)c12)CC1CCC3N1 (stereo not shown) [Example 145]
Ki: 0.31 nM

COc1cc(S(=O)(=O)c2cccc(OCc3ccccc3)c2)cc2c3c(n(C)c12)CC1CCC3N1 (stereo not shown) [Example 147]
Ki: 1.4 nM

COc1cc(S(=O)(=O)n2ncc3ccccc32)cc2c3c(n(C)c12)CC1CCC3N1 (stereo not shown) [Example 148]
Ki: 1.3 nM

COc1cc(S(=O)(=O)n2cc(C#N)c3ccccc32)cc2c3c(n(C)c12)CC1CCC3N1 (stereo not shown) [Example 149]
Ki: 1.2 nM

Cn1c2c(c3cc(S(=O)(=O)c4ccccc4)cc(OC(F)(F)F)c31)C1CCC(C2)N1 (stereo not shown) [Example 150]
Ki: 70 nM

CN(C)C(=O)COc1cc(S(=O)(=O)c2ccccc2)cc2c3c(n(C)c12)CC1CCC3N1 (stereo not shown) [Example 153]
Ki: 581 nM

Cn1c2c(c3cc(S(=O)(=O)c4ccccc4)cc(OCc4ccccn4)c31)C1CCC(C2)N1 (stereo not shown) [Example 154]
Ki: 80 nM

Cn1c2c(c3cc(S(=O)(=O)c4ccccc4)cc(OCc4cccnc4)c31)C1CCC(C2)N1 (stereo not shown) [Example 155]
Ki: 129 nM

Cn1c2c(c3cc(S(=O)(=O)c4ccccc4)cc(N4CCCC4)c31)C1CCC(C2)N1 (stereo not shown) [Example 156]
Ki: 52 nM

Cn1c2c(c3cc(S(=O)(=O)c4cccc(Cl)c4)ccc31)C1CCC(C2)N1 (stereo not shown) [Example 157]
Ki: 2.7 nM

Cn1cc(S(=O)(=O)c2ccc3c(c2)c2c(n3C)CC3CCC2N3)c2ccccc21 (stereo not shown) [Example 165]
Ki: 0.81 nM

Cn1cc(S(=O)(=O)c2ccc3c(c2)c2c(n3C)CC3CCC2N3)c2ccccc21 (stereo not shown) [Example 166]
Ki: 0.41 nM

Cn1c2c(c3cc(S(=O)(=O)c4ccc5sccc5c4)ccc31)C1CCC(C2)N1 (stereo not shown) [Example 167]
Ki: 7.5 nM

Cn1c2c(c3cc(S(=O)(=O)c4ccc5sccc5c4)ccc31)C1CCC(C2)N1 (stereo not shown) [Example 168]
Ki: 3.3 nM

Cn1c2c(c3cc(S(=O)(=O)c4cccc5cccnc45)ccc31)C1CCC(C2)N1 (stereo not shown) [Example 169]
Ki: 27 nM

Cn1c2c(c3cc(S(=O)(=O)c4cccc5cccnc45)ccc31)C1CCC(C2)N1 (stereo not shown) [Example 170]
Ki: 17 nM

Cn1c2c(c3cc(S(=O)(=O)c4ccc(C#N)cc4)ccc31)C1CCC(C2)N1 (stereo not shown) [Example 177]
Ki: 747 nM

Cn1c2c(c3cc(S(=O)(=O)c4ccc(C#N)cc4)ccc31)C1CCC(C2)N1 (stereo not shown) [Example 178]
Ki: 454 nM

CC(C)n1c2c(c3cc(S(=O)(=O)c4ccccc4)ccc31)C1CCC(C2)N1 (stereo not shown) [Example 181]
Ki: 284 nM

CC(C)n1c2c(c3cc(S(=O)(=O)c4ccccc4)ccc31)C1CCC(C2)N1 (stereo not shown) [Example 182]
Ki: 365 nM

CN1C2CCC1c1c(n(C)c3ccc(S(=O)(=O)c4ccc5[nH]ccc5c4)cc13)C2 (stereo not shown) [Example 183]
Ki: 0.42 nM

CN1C2CCC1c1c(n(C)c3ccc(S(=O)(=O)c4ccc5[nH]ccc5c4)cc13)C2 (stereo not shown) [Example 184]
Ki: 0.35 nM

CCN1C2CCC1c1c(n(C)c3ccc(S(=O)(=O)c4ccc5[nH]ccc5c4)cc13)C2 (stereo not shown) [Example 185]
Ki: 1.5 nM

CCN1C2CCC1c1c(n(C)c3ccc(S(=O)(=O)c4ccc5[nH]ccc5c4)cc13)C2 (stereo not shown) [Example 186]
Ki: 0.77 nM

Cn1c2c(c3cc(S(=O)(=O)n4ccc5cc(Cl)ccc54)ccc31)C1CCC(C2)N1 (stereo not shown) [Example 195]
Ki: 4.6 nM
